Data on three molecules can be found in ChEMBL document CHEMBL1155497, “Double stranded DNA discrimination by di-pyrene modified gamma-cyclodextrin” (Bioorg Med Chem Lett, 2010).

Calls of active or inactive are those of the source. The rule behind the calls is not given here.

Format in all cases: nucleic-acid assay
The test system of test [1] is Nucleic Acid. The experiment in a line: Binding affinity to single strand DNA assessed as increase in fluorescence intensity at 0.1 uM by fluorescence spectroscopy technique.
The subject of test [2] is Nucleic Acid. The experiment in a line: Binding affinity to double strand DNA assessed as increase in fluorescence intensity at 0.1 uM by fluorescence spectroscopy technique.
The subject of test [3] is Nucleic Acid. Nature of the test: Binding affinity to double strand DNA assessed as increase in fluorescence intensity at 0.6 uM by fluorescence spectroscopy technique.
Test [4] relates to Nucleic Acid. Nature of the test: Binding affinity to single strand DNA assessed as increase in fluorescence intensity at 0.6 uM by fluorescence spectroscopy technique.
Test [5] relates to Nucleic Acid. The experiment in a line: Binding affinity to single strand DNA assessed as increase in fluorescence intensity at 0.3 uM by fluorescence spectroscopy technique.
The test system of test [6] is Nucleic Acid. The experiment in a line: Binding affinity to double strand DNA assessed as increase in fluorescence intensity using > 0.00075 uM of DNA at 0.3 uM by fluorescence spectroscopy technique.
For test [7], the system named is Nucleic Acid. The experiment in a line: Binding affinity to double strand DNA assessed as increase in fluorescence intensity using 0.00075 uM of DNA at 0.3 uM by fluorescence spectroscopy technique.
The test system of test [8] is Nucleic Acid. The experiment in a line: Binding affinity to double strand DNA assessed as increase in fluorescence intensity by fluorescence spectroscopy technique.
In test [9] the test system is Nucleic Acid. The experiment in a line: Binding affinity to single strand DNA assessed as increase in fluorescence intensity using > 0.00075 uM of DNA by fluorescence spectroscopy technique.
Test [10] has as its system Nucleic Acid. The experiment in a line: Binding affinity to single strand DNA assessed as increase in fluorescence intensity using 0.00075 uM of DNA by fluorescence spectroscopy technique.

`O=C(CSC[C@H]1O[C@@H]2O[C@@H]3[C@@H](CO)C[C@H](O[C@H]4[C@H](O)[C@@H](O)[C@@H](O[C@H]5[C@H](O)[C@@H](O)[C@@H](O[C@H]6[C@H](O)[C@@H](O)[C@@H](O[C@H]7[C@H](O)[C@@H](O)[C@@H](O[C@H]8[C@H](O)[C@@H](O)[C@@H](O[C@H]9[C@H](O)[C@@H](O)[C@@H](O[C@H]1[C@H](O)[C@H]2O)O[C@@H]9CO)O[C@@H]8CSCC(=O)NCCOCCOCCOCc1ccc2ccc8cccc9ccc1c2c89)O[C@@H]7CO)O[C@@H]6CO)O[C@@H]5CO)O[C@@H]4CO)[C@H](O)[C@H]3O)NCCOCCOCCOCc1ccc2ccc3cccc4ccc1c2c34`: the outcome in test [1], in [2], in [3] and in test [4] was inactive.

As for `O=C(NCCOCCOCCOCc1ccc2ccc3cccc4ccc1c2c34)SC[C@H]1O[C@@H]2O[C@H]3[C@H](O)[C@@H](O)[C@@H](O[C@H]4[C@H](O)[C@@H](O)[C@@H](O[C@@H]5[C@@H](CO)C[C@H](O[C@H]6[C@H](O)[C@@H](O)[C@@H](O[C@H]7[C@H](O)[C@@H](O)[C@@H](O[C@H]8[C@H](O)[C@@H](O)[C@@H](O[C@H]9[C@H](O)[C@@H](O)[C@@H](O[C@H]1[C@H](O)[C@H]2O)O[C@@H]9CO)O[C@@H]8CO)O[C@@H]7CO)O[C@@H]6CSC(=O)NCCOCCOCCOCc1ccc2ccc6cccc7ccc1c2c67)[C@H](O)[C@H]5O)O[C@@H]4CO)O[C@@H]3CO`, the result in test [5] and in test [6] was inactive. The result in test [7] was Active.

As to `CCCN(CCCN(C)C)C1=CC(Cc2sc3ccccc3[n+]2C)c2ccccc2N1c1ccccc1` (stereo not given), the result in test [8], in [9] and in [10] was Active.
